Data as given in ChEMBL document CHEMBL1811859, “Second-generation sulfonamide inhibitors of D-glutamic acid-adding enzyme: activity optimisation with conformationally rigid analogues of D-glutamic acid” (Eur J Med Chem, 2011).
pIC50, pKi: −log10 of the molar value. In brackets after ≈: the same amount, converted by molar mass.

Assays:
[1] = Inhibition of Escherichia coli MurD ligase assessed as addition of D-[3H]glu to UDP-N-acetyl-muramoyl-L-alanine
[2] = Inhibition of Escherichia coli MurD ligase assessed as addition of D-[3H]glu to UDP-N-acetyl-muramoyl-L-alanine after 30 mins
Citrobacter freundii = experiment: Antimicrobial activity against Citrobacter freundii ATCC 8090 by broth dilution method; format: functional
Escherichia coli [3] = experiment: Inhibition of Escherichia coli MurD ligase assessed as residual activity at 500 uM after 30 mins
Staphylococcus aureus [4] = experiment: Antimicrobial activity against methicillin-resistant Staphylococcus aureus PL1 by broth dilution method; format: functional
Klebsiella pneumoniae = experiment: Antimicrobial activity against Klebsiella pneumoniae ATCC 13883 by broth dilution method; format: functional
Streptococcus pneumoniae [5] = experiment: Antimicrobial activity against Streptococcus pneumoniae D39 by broth dilution method; format: functional
Staphylococcus aureus [6] = experiment: Antimicrobial activity against methicillin-resistant Staphylococcus aureus ATCC 43300 by broth dilution method; format: functional
Escherichia coli [7] = experiment: Antimicrobial activity against Escherichia coli ATCC 8739 by broth dilution method; format: functional
[8] = tested on: Staphylococcus epidermidis; experiment: Antimicrobial activity against Staphylococcus epidermidis ATCC 12228 by broth dilution method; format: functional
Proteus mirabilis = experiment: Antimicrobial activity against Proteus mirabilis ATCC 29936 by broth dilution method; format: functional
Bacillus subtilis = experiment: Antimicrobial activity against Bacillus subtilis ATCC 6633 by broth dilution method; format: functional
Enterococcus faecalis [9] = experiment: Antimicrobial activity against Enterococcus faecalis ATCC 19433 by broth dilution method; format: functional
Streptococcus pneumoniae [10] = experiment: Antimicrobial activity against Streptococcus pneumoniae ATCC 33400 by broth dilution method; format: functional
Pseudomonas aeruginosa = experiment: Antimicrobial activity against Pseudomonas aeruginosa ATCC 27853 by broth dilution method; format: functional
Enterococcus faecalis [11] = experiment: Antimicrobial activity against Enterococcus faecalis ATCC 29212 by broth dilution method; format: functional
Enterococcus hirae = experiment: Antimicrobial activity against Enterococcus hirae ATCC 9790 by broth dilution method; format: functional
Enterococcus faecium = experiment: Antimicrobial activity against Enterococcus faecium ATCC 19434 by broth dilution method; format: functional
Streptococcus pneumoniae [12] = experiment: Antimicrobial activity against Streptococcus pneumoniae ATCC 49619 by broth dilution method; format: functional
Listeria monocytogenes = experiment: Antimicrobial activity against Listeria monocytogenes ATCC 14780 by broth dilution method; format: functional
Micrococcus luteus = experiment: Antimicrobial activity against Micrococcus luteus ATCC 9314 by broth dilution method; format: functional
Listeria innocua = experiment: Antimicrobial activity against Listeria innocua ATCC 33090 by broth dilution method; format: functional
Staphylococcus aureus [13] = experiment: Antimicrobial activity against Staphylococcus aureus ATCC 25923 by broth dilution method; format: functional
[14] = Inhibition of Escherichia coli MurD ligase
[15] = Inhibition of Escherichia coli MurD ligase by fluorimetric assay
[16] = Inhibition of Escherichia coli MurD ligase after 10 mins using malachite green reagent by colorimetry

| Structure (SMILES) | MIC (Citrobacter freundii) | Activity (Escherichia coli [3]) | MIC (Staphylococcus aureus [4]) | MIC (Klebsiella pneumoniae) | MIC (Streptococcus pneumoniae [5]) | MIC (Staphylococcus aureus [6]) | MIC (Escherichia coli [7]) | MIC [8] | MIC (Proteus mirabilis) | MIC (Bacillus subtilis) | MIC (Enterococcus faecalis [9]) | MIC (Streptococcus pneumoniae [10]) | MIC (Pseudomonas aeruginosa) | MIC (Enterococcus faecalis [11]) | MIC (Enterococcus hirae) | MIC (Enterococcus faecium) | MIC (Streptococcus pneumoniae [12]) | MIC (Listeria monocytogenes) | MIC (Micrococcus luteus) | MIC (Listeria innocua) | other results |
| --- | --- | --- | --- | --- | --- | --- | --- | --- | --- | --- | --- | --- | --- | --- | --- | --- | --- | --- | --- | --- | --- |
| CC(=O)N[C@H]1C(OP(=O)(O)O)O[C@H](CO)[C@@H](O)[C@@H]1O[C@H](C)C(=O)N[C@@H](C)P(=O)(O)CC(CCC(=O)O)C(=O)O (stereo not given in full) |  |  |  |  |  |  |  |  |  |  |  |  |  |  |  |  |  |  |  |  | pIC50 [1]: 7.70 |
| N#Cc1ccc(COc2ccc3cc(S(=O)(=O)Nc4ccc(O)cc4C(=O)O)ccc3c2)c(F)c1 | > 512 µg/mL | 3% | > 512 µg/mL | > 512 µg/mL | > 512 µg/mL | > 512 µg/mL | > 512 µg/mL | > 512 µg/mL | > 512 µg/mL | > 512 µg/mL | > 512 µg/mL | > 512 µg/mL | > 512 µg/mL | > 512 µg/mL | > 512 µg/mL | > 512 µg/mL | > 512 µg/mL | > 512 µg/mL | > 512 µg/mL | > 512 µg/mL | pIC50 [2]: 4.34; pKi [2]: 4.49; MIC (Staphylococcus aureus [13]): > 512 µg/mL |
| O=C(N/N=C/c1ccc(O)c(O)c1O)c1n[nH]c2ccccc12 |  |  |  |  |  |  |  |  |  |  |  |  |  |  |  |  |  |  |  |  | pIC50 [14]: 3.49 |
| CCCCOc1ccc2cc(S(=O)(=O)Nc3ccc(O)cc3C(=O)O)ccc2c1 | > 512 µg/mL | 76% | > 512 µg/mL | > 512 µg/mL | 64 µg/mL (≈ 154 µM) | > 512 µg/mL | > 512 µg/mL | > 512 µg/mL | > 512 µg/mL | > 512 µg/mL | > 512 µg/mL | 32 µg/mL (≈ 77 µM) | > 512 µg/mL | 256 µg/mL (≈ 616 µM) | 256 µg/mL (≈ 616 µM) | 256 µg/mL (≈ 616 µM) | 64 µg/mL (≈ 154 µM) | > 512 µg/mL | 256 µg/mL (≈ 616 µM) | > 512 µg/mL | MIC (Staphylococcus aureus [13]): > 512 µg/mL |
| Cc1ccc(C(=O)O)cc1NC(=O)CSc1nnc(N)s1 |  |  |  |  |  |  |  |  |  |  |  |  |  |  |  |  |  |  |  |  | pIC50 [15]: 3.98 |
| CCCCOc1ccc2cc(S(=O)(=O)N[C@@H](CCC(=O)O)C(=O)O)ccc2c1 |  |  |  |  |  |  |  |  |  |  |  |  |  |  |  |  |  |  |  |  | pIC50 [14]: 3.15 |
| C[C@@H]1NC(=O)[C@H](CO)NC(=O)CCCCCC[C@H](C(=O)O)CC1=O |  |  |  |  |  |  |  |  |  |  |  |  |  |  |  |  |  |  |  |  | pIC50 [16]: 6.15 |
| CCCCOc1ccc2cc(S(=O)(=O)Nc3cc(C(=O)O)cc(C(=O)O)c3)ccc2c1 | > 512 µg/mL | 70% | > 512 µg/mL | > 512 µg/mL | > 512 µg/mL | > 512 µg/mL | > 512 µg/mL | > 512 µg/mL | > 512 µg/mL | > 512 µg/mL | > 512 µg/mL | > 512 µg/mL | > 512 µg/mL | > 512 µg/mL | > 512 µg/mL | > 512 µg/mL | > 512 µg/mL | > 512 µg/mL | > 512 µg/mL | > 512 µg/mL | MIC (Staphylococcus aureus [13]): > 512 µg/mL |
